For test [1], the target named is T1, IRAK4 (Homo sapiens, UniProt Q9NWZ3).
T1 construct: evaluate the effects of the compounds of the present disclosure on the expression of target proteins in cells; endogenous in cells; host or cells: hPBMC
T1 sequence (Q9NWZ3 1-460): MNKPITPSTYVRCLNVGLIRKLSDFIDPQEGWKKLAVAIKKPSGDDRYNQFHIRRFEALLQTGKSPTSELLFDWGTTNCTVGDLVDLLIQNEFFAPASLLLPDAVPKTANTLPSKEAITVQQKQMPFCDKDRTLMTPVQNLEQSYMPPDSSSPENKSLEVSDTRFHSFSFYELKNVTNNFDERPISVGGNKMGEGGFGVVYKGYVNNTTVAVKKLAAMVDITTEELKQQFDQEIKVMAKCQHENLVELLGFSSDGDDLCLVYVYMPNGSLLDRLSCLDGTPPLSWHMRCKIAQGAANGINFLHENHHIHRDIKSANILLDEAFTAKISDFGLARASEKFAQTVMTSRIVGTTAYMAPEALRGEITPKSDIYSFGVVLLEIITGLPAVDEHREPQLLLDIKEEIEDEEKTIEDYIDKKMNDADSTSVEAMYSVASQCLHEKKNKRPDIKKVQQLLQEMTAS
Put plainly: Western blot degradation of IRAK4 (hPBMC). Format: cell-based. The settings on record: Table D1. The procedure:
Conventional Western blot assay was performed to evaluate the effects of the compounds of the present disclosure on the expression of target proteins in cells.
(1) Cell Seeding and Protein Harvesting: The selected cells were processed according to the cell seeding procedure and protein harvesting procedure in Table III-2. Table III-2 Cell Seeding and Protein Harvesting Procedures
(2) To the collected supernatant, 5X SDS sample loading buffer was added, followed by denaturation at 95°C for 5 minutes. The denatured samples were then separated by SDS-PAGE electrophoresis on a polyacrylamide gel. Proteins were transferred to a nitrocellulose membrane (0.45 µm NC membrane), blocked with blocking buffer at room temperature for 1 hour, and subjected to antibody incubation and development procedures according to the antibody manufacturer's instructions (Cell Signaling Technology).
Half-Maximal Degradation Concentration value (the drug concentration required for degrading proteins by 50%, abbreviated as DC50) reads method: comparing the grayscale values of Western blot bands from drug-treated samples with those from blank DMSO-treated controls, and identifying the drug concentration range at which the grayscale value is half that of the DMSO-treated control bands.
DC50 values can be calculated using ImageJ software to measure grayscale values of Western blot bands from drug-treated samples. The concentration-response curve is fitted to estimate the drug concentration corresponding to half the grayscale value.
Target protein remaining (%) refers to the percentage of target protein remaining in hPBMC cells after treatment with protein degrader compounds.
Calculation method for target protein remaining (%): Use ImageJ software to measure grayscale values of Western blot bands from drug (protein degrader)-treated samples. The grayscale value of drug-treated bands is divided by that of internal control protein bands, and the resulting quotient is normalized to obtain the relative percentage of remaining target protein after protein degrader treatment.
Target protein degradation rate (%) = 100% - target protein remaining (%).

The test system of test [2] is EGFR. Put plainly: Western blot degradation of EGFR (H1975 Cell). Format: cell-based, Human. The note with it: Table D2. The procedure, abridged:
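Quantification by ImageJ densitometry of Western blot bands: DC50 is the fitted concentration halving band intensity relative to DMSO. Percent remaining uses internal-control normalization, and degradation rate is its complement.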

Test [3] has as its system H1975. Briefly: CCK-8 proliferation, NCI-H1975 (H1975). It counts as cell-based, Human. The settings on record: Homo sapiens, NCI-H1975; CCK-8; 96 hours; read-out: Inhibitory activity (IC50) on tumor cell proliferation, H1975. The method, boiled down:
(§1)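 Cells seeded, then after 24 h treated with 10 concentrations (top 10 µM, 5-fold serial dilution) for a line-specific time at 37°C, 5% CO2. Viability read by CCK-8; IC50 fitted from growth-inhibition curves.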

In test [4] the test system is MM.1S. Briefly: CCK-8 proliferation, MM.1S. It counts as cell-based. The settings on record: Homo sapiens, MM1.S; CCK-8; 72 hours; read-out: Inhibitory activity (IC50) on tumor cell proliferation, MM1S. The procedure: (§2) The tumor cells used herein were cultured in a cell culture medium listed in table A1 at 37°C in an incubator with 5% CO2. Prior to experimentation, all cell lines used were correctly identified by STR profiling, and tested negative for mycoplasma contamination using a mycoplasma detection kit through routine screenings. Table A1. Tumor cells and cell culture medium used in the present disclosure
(§3) IC50 values of the compounds of the present disclosure (including the compounds in Table 1, and compounds of examples) were measured using the Meilun Cell Counting Kit-8 kit from Dalian Meilun Biotech Co., Ltd. Assay details are as follows: tumor cells were seeded in a 96-well plate at a density listed in Table A2. After 24h, 100 µL of the inoculated cells were treated with 0.5µL of the compounds of the present disclosure (including the compounds in Tables 1 and 2, and compounds of examples) at 10 different successively decreasing concentrations (starting at the highest concentration of 10µM; 5-fold serial dilutions). After the cells were treated with the compounds of the present disclosure for a period of time, the cell viability detection reagent was added to the culture medium for cell viability assessment according to the instructions provided with the CCK-8 kit. […] The growth inhibition of the compounds of the present disclosure on cells was plotted by Prism Graphpad software, and the IC50 values of the compounds of the present disclosure were calculated therefrom. […] Seeding protocol and treatment time for tumor cells

Test [5] concerns CCRF-CEM. Put plainly: CCK-8 proliferation, CCRF-CEM. Format: cell-based, Human. The note with it: Homo sapiens, CCRF-CEM; CCK-8; 96 hours; read-out: Inhibitory activity (IC50) on tumor cell proliferation, CCRF-CEM. As to the method:
as §2, §3

The test system of test [6] is MCF7. Put plainly: CCK-8 proliferation, MCF7 (MCF-7). It counts as cell-based. The settings on record: Homo sapiens, MCF7; CCK-8; read-out: Inhibitory activity (IC50) on tumor cell proliferation, MCF7. The method, boiled down:
as §1

Test [7] deals with T2, human Cereblon WT GST-tagged protein (Homo sapiens, UniProt Q96SW2).
T2 construct: purchased CISBIO 64BDCRBNPEH
Briefly: CRBN binding, HTRF (CEREBLON BINDING kit). The note with it: Table II-2, CRBN binding screening, HTRF. The procedure, abridged:
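Competitive HTRF: GST-tagged human WT Cereblon mixed with compound, Thalidomide-Re tracer and GST Eu antibody, incubated 3 h at room temperature. Signals read at 620 and 665 nm.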
(In general: Time-resolved FRET reads energy transfer from a long-lived donor to a nearby acceptor.)

Structures are written as SMILES.

T2 sequence (Q96SW2 whole entry): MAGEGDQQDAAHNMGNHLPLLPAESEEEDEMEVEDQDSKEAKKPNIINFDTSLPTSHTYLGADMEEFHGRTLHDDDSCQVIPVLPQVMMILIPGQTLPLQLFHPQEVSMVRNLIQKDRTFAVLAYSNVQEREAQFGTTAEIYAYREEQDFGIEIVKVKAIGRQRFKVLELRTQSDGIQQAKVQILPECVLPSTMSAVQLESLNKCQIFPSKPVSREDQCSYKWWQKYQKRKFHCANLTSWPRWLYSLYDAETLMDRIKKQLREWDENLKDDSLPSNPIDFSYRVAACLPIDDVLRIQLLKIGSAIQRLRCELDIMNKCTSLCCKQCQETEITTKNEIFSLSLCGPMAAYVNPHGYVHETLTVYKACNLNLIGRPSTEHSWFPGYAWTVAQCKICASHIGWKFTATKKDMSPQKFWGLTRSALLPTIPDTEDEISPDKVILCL

Regarding `O=C1CCC(c2ccc(CN3CCC(n4cc(NC(=O)c5coc(-c6ccnc(NCC7CC7)c6)n5)c(C(F)F)n4)CC3)cc2F)C(=O)N1` (centres unmarked) [GT-04176, 2-(2-((cyclopropylmethyl)amino)pyridin-4-yl)-N-(3-(difluoromethyl)-1-(1-(4-(2,6-dioxopiperidin-3-yl)-3-fluorobenzyl)piperidin-4-yl)-1H-pyrazol-4-yl)oxazole-4-carboxamide], in test [1], the “Degradation of substrate protein IRAK4 (substrate protein remaining %)” value was “A (A is defined as 0% ≤ substrate protein remaining % ≤ 80%)”.
As to `O=C1CCN(c2cccc(CN3CCC(n4cc(NC(=O)c5cnn6ccc(N7CCOCC7)nc56)c(C(F)F)n4)CC3)c2)C(=O)N1` [GT-04177, N-(3-(difluoromethyl)-1-(1-(3-(2,4-dioxotetrahydropyrimidin-1(2H)-yl)benzyl)piperidin-4-yl)-1H-pyrazol-4-yl)-5-morpholinopyrazolo[1,5-a]pyrimidine-3-carboxamide], the “Degradation of substrate protein IRAK4 (substrate protein remaining %)” value in test [1] is given as “A (A is defined as 0% ≤ substrate protein remaining % ≤ 80%)”.
For `COc1cc2nn(C3CCN(Cc4cccc(NC5CCC(=O)NC5=O)c4)CC3)cc2cc1NC(=O)c1cccc(C(F)(F)F)c1` (centres unmarked) [GT-04749, N-(2-(1-(3-((2,6-dioxopiperidin-3-yl)amino)benzyl)piperidin-4-yl)-6-methoxy-2H-indazol-5-yl)-3-(trifluoromethyl)benzamide], the “Degradation of substrate protein IRAK4 (substrate protein remaining %)” value in test [1] was “A (A is defined as 0% ≤ substrate protein remaining % ≤ 80%)”.
On to `COc1cc2nn(C3CCN(Cc4cccc(N5CCC(=O)NC5=O)c4)CC3)cc2cc1NC(=O)c1cccc(C(F)(F)F)c1` [GT-04750, N-(2-(1-(3-(2,4-dioxotetrahydropyrimidin-1(2H)-yl)benzyl)piperidin-4-yl)-6-methoxy-2H-indazol-5-yl)-3-(trifluoromethyl)benzamide], for which the “Degradation of substrate protein IRAK4 (substrate protein remaining %)” value in test [1] is listed as “A (A is defined as 0% ≤ substrate protein remaining % ≤ 80%)”.
Turning to `O=C1CCN(c2cncc(CN3C[C@H]4C[C@@H]3CN4c3ccc(-c4cc(F)c5c(c4)C(=O)N(C(C(=O)Nc4nccs4)c4ncn6c4CCC6)C5)cc3)c2)C(=O)N1` (stereo partly drawn) [GT-07388, 2-(6,7-dihydro-5H-pyrrolo[1,2-c]imidazol-1-yl)-2-(6-(4-((1R,4R)-5-((5-(2,4-dioxotetrahydropyrimidin-1(2H)-yl)pyridin-3-yl)methyl)-2,5-diazabicyclo[2.2.1]heptan-2-yl)phenyl)-4-fluoro-1-oxoisoindolin-2-yl)-N-(thiazol-2-yl)acetamide], the “Degradation of substrate protein EGFR (substrate protein remaining %)” value in test [2] is “A (A is defined as 0% ≤ substrate protein remaining % ≤ 80%)”. Further, in test [3], the IC50 was in the range of 1 to 10 nM.
For `O=C1CCC(c2ccc(CN3C[C@H]4C[C@@H]3CN4c3ccc(-c4cc(F)c5c(c4)C(=O)N(C(C(=O)Nc4nccs4)c4ncn6c4CCC6)C5)cc3)nc2)C(=O)N1` (stereo partly drawn) [GT-07389, 2-(6,7-dihydro-5H-pyrrolo[1,2-c]imidazol-1-yl)-2-(6-(4-((1R,4R)-5-((5-(2,6-dioxopiperidin-3-yl)pyridin-2-yl)methyl)-2,5-diazabicyclo[2.2.1]heptan-2-yl)phenyl)-4-fluoro-1-oxoisoindolin-2-yl)-N-(thiazol-2-yl)acetamide], the “Degradation of substrate protein EGFR (substrate protein remaining %)” value in test [2] is recorded as “A (A is defined as 0% ≤ substrate protein remaining % ≤ 80%)”. The IC50 in test [3] was 1 to 10 nM.
On to `O=C1CCC(c2cc(CN3C[C@H]4C[C@@H]3CN4c3ccc(-c4cc(F)c5c(c4)C(=O)N(C(C(=O)Nc4nccs4)c4ncn6c4CCC6)C5)cc3)ccn2)C(=O)N1` (stereo partly drawn) [GT-07390, 2-(6,7-dihydro-5H-pyrrolo[1,2-c]imidazol-1-yl)-2-(6-(4-((1R,4R)-5-((2-(2,6-dioxopiperidin-3-yl)pyridin-4-yl)methyl)-2,5-diazabicyclo[2.2.1]heptan-2-yl)phenyl)-4-fluoro-1-oxoisoindolin-2-yl)-N-(thiazol-2-yl)acetamide], for which, in test [2], the “Degradation of substrate protein EGFR (substrate protein remaining %)” value is reported as “A (A is defined as 0% ≤ substrate protein remaining % ≤ 80%)”. Further, the IC50 in test [3] lay in the range of 1 to 10 nM.
For the molecule `O=C1CCC(c2cncc(CN3C[C@H]4C[C@@H]3CN4c3ccc(-c4cc(F)c5c(c4)C(=O)N(C(C(=O)Nc4nccs4)c4ncn6c4CCC6)C5)cc3)c2)C(=O)N1` (stereo partly drawn) [GT-07391, 2-(6,7-dihydro-5H-pyrrolo[1,2-c]imidazol-1-yl)-2-(6-(4-((1R,4R)-5-((5-(2,6-dioxopiperidin-3-yl)pyridin-3-yl)methyl)-2,5-diazabicyclo[2.2.1]heptan-2-yl)phenyl)-4-fluoro-1-oxoisoindolin-2-yl)-N-(thiazol-2-yl)acetamide], the “Degradation of substrate protein EGFR (substrate protein remaining %)” value in test [2] was “A (A is defined as 0% ≤ substrate protein remaining % ≤ 80%)”. In test [3], the IC50 fell in the range of 1 to 10 nM.
`CN(Cc1cncc(C2CCC(=O)NC2=O)c1)C1CCN(c2ccc(-c3cc(F)c4c(c3)C(=O)N(C(C(=O)Nc3nccs3)c3ncn5c3CCC5)C4)cc2)CC1` (centres unmarked) [GT-07393, 2-(6,7-dihydro-5H-pyrrolo[1,2-c]imidazol-1-yl)-2-(6-(4-(4-(((5-(2,6-dioxopiperidin-3-yl)pyridin-3-yl)methyl)(methyl)amino)piperidin-1-yl)phenyl)-4-fluoro-1-oxoisoindolin-2-yl)-N-(thiazol-2-yl)acetamide]: in test [2], the “Degradation of substrate protein EGFR (substrate protein remaining %)” value is given as “A (A is defined as 0% ≤ substrate protein remaining % ≤ 80%)”. Moreover, the IC50 in test [3] was in the range of 1 to 10 nM.
For the molecule `Cc1nc2c(F)cc(-c3nc(Nc4ccc(N5CCC(N6CCN(Cc7cncc(N8CCC(=O)NC8=O)c7)CC6)CC5)cn4)ncc3F)cc2n1C(C)C` [GT-07488, 1-(5-((4-(1-(6-((5-fluoro-4-(4-fluoro-1-isopropyl-2-methyl-1H-benzo[d]imidazol-6-yl)pyrimidin-2-yl)amino)pyridin-3-yl)piperidin-4-yl)piperazin-1-yl)methyl)pyridin-3-yl)dihydropyrimidine-2,4(1H,3H)-dione], the IC50 in test [4] lay within 50 to 100 nM; in test [3], 100 to 500 nM; in test [5], 100 to 500 nM; in test [6], 50 to 100 nM. For the same molecule, the inhibition (as a rule, the relative decrease from the control value, in per cent) at 0.5 µM in test [7] (at 0.5µM, read-out: Inhibition rate (%) at 0.5µM) lay in the range of 53 to 60%. Also, the inhibition at 2 µM in test [7] (at 2 µM, read-out: Inhibition rate (%) at 2 µM) was 80 to 100%.

Values taken from patent EP4678638A1, “NEW E3 UBIQUITIN LIGASE LIGAND, PROTEIN DEGRADATION AGENT AND USE THEREOF” (priority 2023, dated 2024).
